Measured values: paper PMC2966823 (Journal of the American Chemical Society, 2010)

How the values were obtained:
[1] = target: cAMP dependent protein kinase A, catalytic subunit α (PKA) (Homo sapiens, UniProt P17612); experiment: split-luciferase three-hybrid displacement of Jun-staurosporine, […] inhibitor; format: cell-based; settings: read-out: % inhibition at 10 μM
[2] = target: FGFR1/FLT2 (Homo sapiens, UniProt P11362); experiment: as above; format: cell-based; settings: read-out: % inhibition at 10 μM
Sequence of FGFR1/FLT2 (P11362 478-767 limits assumed): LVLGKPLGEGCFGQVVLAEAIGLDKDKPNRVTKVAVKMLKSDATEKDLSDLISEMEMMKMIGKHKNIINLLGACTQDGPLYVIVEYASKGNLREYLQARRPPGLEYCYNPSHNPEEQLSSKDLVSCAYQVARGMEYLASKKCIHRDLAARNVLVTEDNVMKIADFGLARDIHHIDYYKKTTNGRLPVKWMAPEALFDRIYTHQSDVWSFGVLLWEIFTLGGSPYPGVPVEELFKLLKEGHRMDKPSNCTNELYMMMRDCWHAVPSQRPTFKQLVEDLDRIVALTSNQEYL

SMILES	inhibition at 10 µM [1]	inhibition at 10 µM [2]
O=S(=O)(NCCNC/C=C/c1ccc(Br)cc1)c1cccc2cnccc12 [compound 5, H89]	67%	
CC(C)[C@H](CO)Nc1nc(Nc2cc(N)cc(Cl)c2)c2ncn(C(C)C)c2n1 [compound 6, aminopurvalanol A]		68%
CC(C)[C@H](CO)Nc1nc(Nc2ccc(C(=O)O)c(Cl)c2)c2ncn(C(C)C)c2n1 [compound 8, purvalanol B]		58%
